The source of these data is patent US9266835B2, “Quinoline derivatives useful as CB-1 inverse agonists” (JANSSEN PHARMACEUTICA NV, priority 2014, dated 2016).

Like-named read-outs stand apart in the source and are kept apart here.

Data set [1] is described as follows: Mouse Fast PK/BBB (plasma and brain concentration). In kind it is in vivo. Conditions: male, C57bl/6j, brain, oral, N=3 (dose given as 30 mg/kg and 20 mg/kg), read-out: BRAIN Mean Conc. ± Std. Dev.
Data set [2] has as its target Human CB2R (Cannabinoid receptor 2) (Homo sapiens (Human), UniProt P34972). The experiment in a line: CB-2 in vitro cAMP assay (HTRF), inverse agonism. In kind it is cell-based. The following applies: mean where tested more than once. A general note: Changes in cAMP serve as a functional read-out for many G protein-coupled receptors.
Data set [3] deals with Human CB1R (Cannabinoid receptor 1) (Homo sapiens (Human), UniProt P21554). As to the kind of experiment: CB-1 in vitro cAMP assay (HTRF), inverse agonism. In kind it is cell-based. Conditions: mean where tested more than once.
Chain of Human CB1R (Cannabinoid receptor 1) (P21554 whole entry): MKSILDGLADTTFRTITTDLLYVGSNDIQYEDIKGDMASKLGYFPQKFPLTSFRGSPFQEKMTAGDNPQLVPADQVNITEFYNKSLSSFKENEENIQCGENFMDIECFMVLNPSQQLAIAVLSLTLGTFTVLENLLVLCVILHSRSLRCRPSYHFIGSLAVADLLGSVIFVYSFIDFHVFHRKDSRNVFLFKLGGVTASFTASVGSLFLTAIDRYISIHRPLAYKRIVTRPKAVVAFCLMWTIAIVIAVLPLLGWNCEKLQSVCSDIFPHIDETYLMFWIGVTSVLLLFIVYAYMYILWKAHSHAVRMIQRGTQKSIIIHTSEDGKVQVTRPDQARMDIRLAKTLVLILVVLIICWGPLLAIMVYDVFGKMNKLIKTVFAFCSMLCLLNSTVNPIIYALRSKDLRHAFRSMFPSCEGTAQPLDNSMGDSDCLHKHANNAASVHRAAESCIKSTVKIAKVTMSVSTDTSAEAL
Data set [4] in a line: Mouse Fast PK/BBB (plasma and brain concentration). The data set is classed as in vivo. Conditions: male, C57bl/6j, oral, N=3 (dose given as 30 mg/kg and 20 mg/kg). The text has this:
(§1) Male Sprague Dawley rats were ordered from Charles River (225-250 gm upon arrival). They were fed standard chow diet (Purina 5001) and housed 2 per cage. Male C57bl/6j mice were ordered from Charles River at 22-25 g and housed 3 per cage. They were fed standard chow (Purina 5001). All animals were housed in a temperature-controlled room with 12-hour light/dark cycle. Animals were given food and water ad libitum, except as noted.
(§2) Test compounds were formulated in 10% PEG400 and 10% solutol. Test compounds were administered by oral gavage (5 ml kg^−1).
Male C57bl/6j mice were dosed with test compounds at 30 mg/kg. Plasma was collected via retro-orbital bleeding at 1 hr and 4 hrs after dosing. Whole brain without cerebellum was collected at 4 hrs after dosing. Wet brain weight was recorded before freezing. Brains were homogenized in saline and sent for analysis for determination of concentration of test compound.
Table BIO-3 below present results for representative compounds of the present invention, tested according to the procedure as described above. Each compound was tested in three animals (N=3) and administered PA at 20 mg/kg

The nature of data set [5]: Open Field Locomotor Activity in Rats (CNS activity), stereotypic counts. In kind it is in vivo, rat. Conditions: n=8, 4 hours, dose not printed in row (doses 3 and 10 mg/kg).
Description: as §1, §2
Male SD rats were weighed and transferred to the Activity Chambers with access to water. After a 2-hr acclimation period, the rats were dosed with vehicle or test compound (@ 3 and 10 mg/kg). The Activity Chamber monitoring software program was initiated and automatically recorded rat activity in each chamber for a period of 4 hours. At the end of the 4 hour monitoring period, the software was stopped and the rats were removed from the activity chambers. The rats were anesthetized and blood samples were obtained via retro-orbital puncture to determine plasma concentration of compounds. The rats were immediately euthanized with CO2 and the brains removed, washed with PBS, frozen on dry ice and stored at −80° C. for receptor occupancy (RO) analysis. […]

Chain of Human CB2R (Cannabinoid receptor 2) (P34972 whole entry): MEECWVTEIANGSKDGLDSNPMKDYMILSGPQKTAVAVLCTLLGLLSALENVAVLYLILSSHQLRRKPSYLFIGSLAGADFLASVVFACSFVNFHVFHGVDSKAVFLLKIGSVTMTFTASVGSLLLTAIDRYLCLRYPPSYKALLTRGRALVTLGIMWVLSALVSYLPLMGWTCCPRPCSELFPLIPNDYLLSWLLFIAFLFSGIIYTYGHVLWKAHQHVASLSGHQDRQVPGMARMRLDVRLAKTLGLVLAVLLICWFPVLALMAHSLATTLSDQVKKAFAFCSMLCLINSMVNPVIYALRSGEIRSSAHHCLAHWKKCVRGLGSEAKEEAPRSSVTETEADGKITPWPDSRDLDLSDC

What is called EC50 is the concentration that produces a half-maximal response. Turning to `O=c1cc(NC2CCN(S(=O)(=O)C(F)(F)F)CC2)c2cc(C(c3ccc(Cl)cc3)c3ccc(Cl)cc3)ccc2[nH]1` [Compound #44, 6-(bis(4-chlorophenyl)methyl)-4-(1-(trifluoromethylsulfonyl)piperidin-4-ylamino)quinolin-2(1H)-one], the concentration at 1 h in data set [1] came to 7.62 ± 2.28 ng/mL; in data set [4] (plasma, 1 hr, read-out: PLASMA Mean Conc. ± Std. Dev) it was 1050 ± 122 ng/mL. In addition, the EC50 in data set [2] was 5230 nM; in data set [3], 8 nM. The concentration at 4 h in data set [4] (brain, read-out: BRAIN Mean Conc. ± Std. Dev) turned out to be 11.8 ± 8.99 ng/mL; in data set [4] (plasma, read-out: PLASMA Mean Conc. ± Std. Dev) it was 1180 ± 148 ng/mL. The figures for the “Stereotypic Counts (MEAN)” value in data set [5] (first #44 row) and in data set [5] (second #44 row) were 3250 and 2850, respectively.
